These results are taken from patent US20250319206A1, “CRISPR/CAS GENE EDITING OF NEH4 AND/OR NEH5 DOMAINS IN NRF2” (Christina Care Gene Editing Institute, Inc., priority 2024, published 2025).

What all share (format): cell-based, Human
One series has as its system NRF2 gene. Briefly: NRF2 gene editing (indel/frameshift) analysis by NGS and CRISPResso2 in FaDu cells. The settings on record: for knocking out NRF2 (DNA sequence data): exon 4. As to the method:
The NRF2 gene-coding sequence was entered into SnapGene and the following gRNAs were selected for targeting exon 2: (sg3) 5′-[…]-3′ (SEQ ID NO:75); as well as two gRNAs targeting Exon 4: (sg76) 5′-[…]-3′ (SEQ ID NO:16), (sg83) 5′-[…]-3′ (SEQ ID NO:24). Based on the gRNA design, synthetic single gRNAs were ordered from Synthego (Menlo Park, California, USA). CleanCap® Cas9 mRNA (5moU) was ordered from TriLink Biotechnologies (San Diego, CA, USA).
Either one million cells were seeded to a 75 cm^2 tissue culture flask or 2.5 million cells were seeded to a 175 cm^2 tissue culture flask 24 hours prior to transfection and allowed to reach 60-80% confluency. On the day of the transfection, cells were treated with Lipofectamine MessengerMAX reagent (Thermo Fisher Scientific, Waltham, MA) bearing 10 μg or 25 μg of Cas9mRNA and 10 μg or 25 μg of sgRNA, suspended in Opti-MEM, per the manufacturer's instructions. 39 μL or 97.5 μL of MessengerMax lipofectamine reagent was diluted in 1.5 mL or 3.75 mL OPTI-MEM medium and vortexed twice was incubated for ten minutes at room temperature, during which time the culture media was replaced with 15 mL or 25 mL of fresh media, as appropriate to the cell line. A total of 20 μg or 50 μg of RNA was then added to the diluted lipofectamine, consisting of 10 μg or 25 μg Cas9 mRNA and 10 μg or 25 μg sgRNA. The suspension was incubated at room temperature for an additional five minutes before being added, in full, to the tissue culture flask, which was then swirled gently to disperse the reagent. […]
Targeted amplicon libraries were prepared using Illumina's 16S metagenomic sequencing library preparation protocol for MiSeq. Genomic DNA was extracted from cells using the Qiagen's DNeasy Blood & Tissue kit (Quiagen, Hilden, Germany) or QuickExtract reagent (Biosearch Technologies). The region surrounding the CRISPR target site for Exon 2 (398 bp) and Exon 4 (402 bp) of the NRF2 gene were amplified using the 2× Phusion Flash PCR master mix (Thermo Fisher Scientific, Waltham, MA). Post amplification, samples were cleaned using AMPure beads and DNA concentration was measured using the Qubit assay (Thermo Fisher Scientific, Waltham, MA). Samples are also run on TapeStation (Agilent Technologies Santa Clara, CA) to verify the presence of the desired amplicon. The samples were indexed using either the IDT for Illumina DNA/RNA UD indexes set A (Illumina San Diego, CA). Samples were again quantified using Qubit and average library size was calculated using the Tapestation amplicon size. Once pooled to the loading concentration, the libraries were sequenced using the MiSeq Reagent kit v2 (Illumina, San Diego, CA). Only the data that passed data QC in Sequencing Analysis Viewer, was analyzed using CRISPResso2 (CRISPResso2 website) to understand gene editing efficiency and frameshift analysis.

For series [1], the system named is NRF2 downstream target genes (NQO1, HMOX1, GCLC). The experiment in a line: qPCR gene expression analysis of NRF2 and downstream targets in FaDu cells. The settings on record: for NQO1 expression (qPCR): vs wildtype unedited cells, without cisplatin exposure. The protocol: Total RNA was isolated from edited cells using TRIzol reagent and PureLink RNA Mini Kit (Thermo Fisher Scientific, Waltham, MA). Reverse transcription was conducted using the Applied Biosystems High-Capacity RNA-to-cDNA kit (Thermo Fisher Scientific, Waltham, MA). The cDNA was used as the template in the qPCR amplification of GAPDH (Fwd 5′ […]3′ (SEQ ID NO:76), Rev 5′[…]3′ (SEQ ID NO:77)), NRF2 (Fwd 5′[…]3′ (SEQ ID NO:78), Rev 5′[…]3′ (SEQ ID NO:79)), NQO1 (Fwd 5′[…]3′ (SEQ ID NO:80), Rev 5′[…]3′ (SEQ ID NO:81)), HMOX1 (Fwd 5′ […]3′ (SEQ ID NO:82), Rev 5′[…]3′ (SEQ ID NO:83)) and GCLC (Fwd 5′[…]3′ (SEQ ID NO:84), Rev 5′ […]3′ (SEQ ID NO:85)) transcripts using the SsoAdvanced universal SYBR Green Supermix (BioRad, Hercules, CA). The experiment was conducted at least twice with all samples run in duplicate at minimum. Relative expression levels of mRNA were calculated using the Livak method and normalized to the control. The data was plotted with the coefficient of variance.
For all gene editing studies from bench to bedside, it is important to employ a functional assay, accompanied by an internal functional control, to assess the efficiency of CRISPR/Cas activity. In this case, NRF2 is a transcription factor that controls the expression of over 200 genes. Thus, NRF2 disruption can be measured functionally through qPCR analysis of NQO1 expression, a keystone gene controlled by NRF2. NQO1 has been used as a standard measure of NRF2 activity in cancer cells^40. We also use downstream targets HMOX1 and GCLC, two major antioxidant enzymes, to assess NRF2 function.
On the technique in general: In qPCR the cycle at which signal appears reflects the starting amount.

The test system of the next series is NRF2. The experiment in a line: NRF2 protein analysis by western blot in FaDu cells. The conditions noted are these: 72-hour timepoint, relative to GapDH, normalized to wild-type. As to the method: Total protein was isolated from cells in RIPA buffer (Pierce), incubated on ice for 30 minutes with vortexing every 10 minutes. Samples were centrifuged at 14,000×G at 4° C. for 15 minutes and the supernatant was saved. Protein extracts were quantified using a BCA assay (Pierce) and 20 μg of protein was loaded onto a Biorad 4-20% polyacrylamide pre-cast gel (Biorad). Protein was transferred onto a […] nitrocellulose blot using the Turboblot dry transfer system (Biorad). The membrane was blocked in 5% milk in TBS-T for 2 hours at room temperature and stained with anti-NRF2 1:1000 (Abcam, ab62352) and anti-GAPDH 1:5,000 (Cell Signaling Technology, 97166). Blots were washed 3× at room temperature in TBS-T and stained with secondary antibodies conjugated to HRP 1:10,000 (Abcam, ab205718 or Thermofisher, PI31430). Blots were imaged using the Pierce Femto western blotting substrate (Pierce). Bands were quantified using the FIJI gel analysis tool package.

Where [2] appears, read: 13 days (two weeks) after transfection.

Take “sg3: gRNA targeting the DLG motif in exon 2 of NRF2; 5′-TATTTGACTTCAGTCAGCGA-3′ or TGGAGGCAAGATATAGATCT (further chemistry not given here) [reference compound]”: the editing in the series with NRF2 gene (72 hr) was found to be 85.5%. In the series with NRF2 gene (setting [2]), the editing is recorded as 73.45%. Also, in the series with NRF2 gene (exon 2, 72 hours), the “frameshift mutations (of the total indels)” value is on record as “exceeded 76%” and the total indel population entry is on record as “exceeded 76%”. The “expression of NQO1, HMOX1, and GCLC” value in series [1] (2 week timepoint) was “increase in expression”. The “expression of downstream target genes relative to NRF2 levels (ratio)” value in series [1] (72 hr) is reported as “do not show a reduction in expression of downstream target genes relative to NRF2 levels”. Further, in the series on NRF2, the “NRF2 protein knock down” value is recorded as 30%.

With “sg76: gRNA targeting exon 4 of NRF2; TCACTTGTTCCTGATATTCC CGG (guide TCACTTGTTCCTGATATTCCCGG; listed as DNA, chemistry not given here)”, the editing is listed as 87% in the series with NRF2 gene (72 hr) and 49.30% in the series with NRF2 gene (setting [2]). Further, the “knocking out NRF2 (DNA sequence data)” value in the series on NRF2 gene is reported as “efficient in knocking out NRF2 at exon 4”. In series [1] (72 hr), the “expression of downstream target genes relative to NRF2 levels (ratio)” value was “do not show a reduction in expression of downstream target genes relative to NRF2 levels”. The “NQO1 expression (qPCR)” value in series [1] is “significantly decreased”. The “NRF2 protein knock down” value with NRF2 turned out to be 90%.

For “sg83: gRNA targeting exon 4 of NRF2; GTAGCCCCTGTTGATTTAGA CGG (guide GTAGCCCCTGTTGATTTAGACGG; listed as DNA, chemistry not given here)”, the figures for the editing in the series with NRF2 gene (72 hr) and with NRF2 gene (setting [2]) were 86% and 40.95%, respectively. Also, the “knocking out NRF2 (DNA sequence data)” value with NRF2 gene was “efficient in knocking out NRF2 at exon 4”. Further, the “expression of NQO1 and GCLC” value in series [1] (2 week timepoint, compared to sg3 and sg76) was “lower expression of NQO1 and GCLC”. In series [1] (72 hr), the “NQO1 and GCLC expression levels” value is given as “diminished”. Moreover, the “NQO1 expression (qPCR)” value in series [1] is given as “significantly decreased”. Besides, in the series with NRF2, the “NRF2 protein knock down” value was 90%.
